“Also recorded” adds a separate entry of the source.
How the values were obtained:
[1] = Standard dissolution test (phosphate buffer pH 7.5, 37° C.); assay type: physicochemical; details: phosphate buffer 1/15 M
Description: The present inventors first attempted to reduce the particle size of the JM216 powder obtained from chemical synthesis by grinding or milling it to an amorphous state (as confirmed by x-ray diffraction pattern). The amorphous state indicates the disappearance of particles or crystalline drug and a particle size close to the molecular level. […] The addition of β-cyclodextrin or polymers to the JM216 during the grinding did allow obtaining the drug as an amorphous powder by reduction of the aggregation. […] The ratio of drug:β-cyclodextrin or drug:polymer also has some effect on solubility, with solubility generally increasing at higher β-cyclodextrin:drug or polymer:drug ratios. Ratios of drug:β-cyclodextrin or drug:polymer of from about 1:1 to about 1:15 (w/w) can be used with ratios of from about 1:4 to 1:15 being preferred and ratios of from about 1:9 to about 1:15 being most preferred.
Dissolution test: The ground mixture containing 5 mg. of JM216 was transferred directly into 50 ml of phosphate buffer (1/15 M, pH 7.5) kept at 37° C. and was stirred with a magnetic stirrer bar at 300 rpm. An aliquot of the solution was pipetted at the indicated time intervals and filtered through a 0.45 μm membrane filter. The concentration of the dissolved JM216 was determined by high performance liquid chromatography (HPLC).
Grinding of the JM216:β-cyclodextrin or JM216:polymer mixtures may be accomplished by standard procedures, e.g. automatic mortar and pestle machines or a hybridizer (milling machine). The time needed in the grinding process may be readily determined by simple test (period analysis of the mixture by x-ray diffraction studies). A suitable grinding time with the automatic mortar and pestle machine is three hours and with the hybridizer, five minutes.

[2] = Water-solubility of JM216 at 23° C.; assay type: physicochemical
Description: Although the oral dosage form of JM216 being pursued in the clinic has obvious advantages over injectable platinum complexes such as cisplatin and carboplatin, it is reported by M. J. McKeage et al in Cancer Chemother. Pharmacol. 36: 451-458 (1995) that the current oral capsule form may have certain pharmacokinetic disadvantages.

[3] = In vitro drug absorption through excised rat rectum (Franz diffusion cell); assay type: in vitro ADME; details: listed as JM216 bulk drug (non-amorphous)
Protocol: The rectum was freshly excised from each rat and was opened lengthwise using scissors. The excised rectum, serous membrane side down, was mounted on a Franz diffusion cell (reservoir volume 10 ml, 7 mm i.d. O ring flange). […] Gentamicin solution (10 mg/ml) was added to the reservoir fluid (phosphate buffer, pH 7.3) in the ratio of 1:100.
The various test samples were incorporated into standard suppository bases and then subjected to the in vitro drug absorption test. […] The suppository samples were prepared by fusion method melting the base at 50° C. for fatty bases or at 75° C. for polyethylene glycol water-soluble base. The drug was incorporated into the base at a concentration of 2 mg/80 mg base. Medium chain fatty acids (or Na salts thereof) and surface active agents were also added at the appropriate level.

[4] = cited from earlier work
[5] = oral capsule, dose levels ≥200 mg/m^2

Compound: CC(=O)[O][Pt]([NH2])([Cl])([Cl])([NH]C1CCCCC1)[O]C(C)=O [JM216, bis-acetato-ammine-dichloro-cyclohexylamine-platinum (IV)]
- Dissolved JM216 ([1]; 1 Min.): 0.2 mg/mL
- Dissolved JM216 ([1]; 5 Min.): 0.3 mg/mL
- Dissolved JM216 ([1]; 15 Min.): 0.5 mg/mL
- Dissolved JM216 ([1]; 30 Min.): 0.5 mg/mL
- Dissolved JM216 ([1]; 60 Min.): 0.5 mg/mL
- water-solubility [2]: 300 µg/mL
- absorption in the rat rectum model (in words) [3]: little absorbed in the form of a suspension in water or in fatty suppository bases; also recorded: absorbed to some extent when incorporated into the water-soluble base, polyethylene glycol (PEG)
- AUC (dose proportionality) [4, 5]: increased less than proportionally to dose
- Cmax (dose proportionality) [4, 5]: increased less than proportionally to dose
- interpatient pharmacokinetic variation [4, 5]: greater interpatient pharmacokinetic variation
- urinary platinum recovery [4, 5]: reduced urinary platinum recovery
- side effects seen with oral dosing ([4]; oral dosing): nausea and vomitting

From patent US6136336A, “JM216 formulations” (priority 1999, dated 2000)
